Laboratory results from patent publication EP0286825A2, “Use of 3'-fluro-3' deoxythymidine for the manufacture of a medicament for the treatment of virus infections” (Max-Planck-Gesellschaft zur Förderung der Wissenschaften …, priority 1987, dated 1988).
Like-named read-outs stand apart in the source and are kept apart here.

Key:
[1] = tested on: HIV; experiment: microbe, parasite or virus in culture; format: cell-based; conditions: for EC50: Human immunodeficiency virus 1, MT4, read-out: concentration of active material that protects the cells with half maximum action against the pathogenic effect of HIV
[2] = tested on: MT₄-cells; experiment: Toxicity to MT4 cells in the absence of HIV, incorporation of thymidine; conditions: MT₄ cells without HIV, Fig. 5, compared with the other compounds
[3] = tested on: peripheral blood lymphocytes; experiment: Viability and cell number of the PHA stimulated peripheral blood lymphocytes; conditions: counts from thymidine incorporation
[4] = tested on: HIV; format: cell-based
[5] = tested on: HIV; format: cell-based; remark: listed apart in the source

Cc1cn([C@H]2C[C@H](F)[C@@H](CO)O2)c(=O)[nH]c1=O
EC50 [1]: < 0.002 µg/mL

[N-]=[N+]=N[C@H]1C[C@H](n2cnc3c(O)ncnc32)O[C@@H]1CO [3ʹ-azido-2ʹ,3ʹ-dideoxyinosine]
rate of thymidine incorporation in the HIV infected cell line ([1]; Fig. 5): nearly equalled that of non-infected T₄ cell lines
Toxicity [2]: higher

Nc1nc2c(ncn2[C@H]2C[C@H](F)[C@@H](CO)O2)c(=O)[nH]1 [3ʹ-fluoro-2ʹ,3ʹ-dideoxyguanosine]
EC50 ([1]; MT₄-cells, 1:40 dilution of the HIV parent liquid, thymidine incorporation): < 1.5 µg/mL
in vitro therapeutic index ([1]; toxic concentration compared with antiviral concentration, MT₄ human cell line): approximately 400

Cc1cn([C@H]2C[C@H](N=[N+]=[N-])[C@@H](CO)O2)c(=O)[nH]c1=O [AZT, azido-thymidine]
toxicity against the PBL [3]: do not show toxicity
%B/Bo ([4]; AZT 0.01 uM, day 4): 54.2%
ng p24/ml ([4]; AZT 0.01 uM, day 4): 3.6 ng p24/ml
%B/Bo ([4]; AZT 0.01 uM, day 7): 62.3%
ng p24/ml ([4]; AZT 0.01 uM, day 7): 2.7 ng p24/ml
%B/Bo ([4]; AZT 0.01 uM, day 11): 12.0%
ng p24/ml ([4]; AZT 0.01 uM, day 11): 20 ng p24/ml
%B/Bo ([4]; AZT 0.01 uM, day 14): 6.2%
ng p24/ml ([4]; AZT 0.01 uM, day 14): 20 ng p24/ml
%B/Bo ([4]; AZT 0.1 uM, day 4): 53.0%
ng p24/ml ([4]; AZT 0.1 uM, day 4): 3.7 ng p24/ml
%B/Bo ([4]; AZT 0.1 uM, day 7): 75.2%
ng p24/ml ([4]; AZT 0.1 uM, day 7): 1.6 ng p24/ml
%B/Bo ([4]; AZT 0.1 uM, day 11): 78.6%
ng p24/ml ([4]; AZT 0.1 uM, day 11): 1.3 ng p24/ml
%B/Bo ([4]; AZT 0.1 uM, day 14): 67.1%
ng p24/ml ([4]; AZT 0.1 uM, day 14): 2.3 ng p24/ml
%B/Bo ([4]; AZT 1 uM, day 4): 53.1%
ng p24/ml ([4]; AZT 1 uM, day 4): 3.7 ng p24/ml
%B/Bo ([4]; AZT 1 uM, day 7): 68.2%
ng p24/ml ([4]; AZT 1 uM, day 7): 2.2 ng p24/ml
%B/Bo ([4]; AZT 1 uM, day 11): 79.8%
ng p24/ml ([4]; AZT 1 uM, day 11): 1.25 ng p24/ml
%B/Bo ([4]; AZT 1 uM, day 14): 84.4%
ng p24/ml ([4]; AZT 1 uM, day 14): 0.94 ng p24/ml
CPM/1+06 CELLS ([5]; AZT 0.01UM, day 7): 1.78E+03 CPM/1+06 CELLS
CPM/ml ([5]; AZT 0.01UM, day 7): 5.9E+03 CPM/ml
CPM/1+06 CELLS ([5]; AZT 0.01UM, day 11): 7.19E+03 CPM/1+06 CELLS
CPM/ml ([5]; AZT 0.01UM, day 11): 2.8E+04 CPM/ml
CPM/1+06 CELLS ([5]; AZT 0.01UM, day 14): 2.41E+04 CPM/1+06 CELLS
CPM/ml ([5]; AZT 0.01UM, day 14): 1.4E+05 CPM/ml
CPM/1+06 CELLS ([5]; AZT 0.1UM, day 7): 8.64E+01 CPM/1+06 CELLS
CPM/ml ([5]; AZT 0.1UM, day 7): 3.5E+02 CPM/ml
CPM/1+06 CELLS ([5]; AZT 0.1UM, day 11): 2.49E+02 CPM/1+06 CELLS
CPM/ml ([5]; AZT 0.1UM, day 11): 1.2E+03 CPM/ml
CPM/1+06 CELLS ([5]; AZT 0.1UM, day 14): 9.78E+02 CPM/1+06 CELLS
CPM/ml ([5]; AZT 0.1UM, day 14): 3.9E+03 CPM/ml
CPM/1+06 CELLS ([5]; AZT 1UM, day 7): 7.66E+02 CPM/1+06 CELLS
CPM/ml ([5]; AZT 1UM, day 7): 2.9E+03 CPM/ml
CPM/ml ([5]; AZT 1UM, day 11): -8.1E+03 CPM/ml
CPM/1+06 CELLS ([5]; AZT 1UM, day 14): 1.55E+02 CPM/1+06 CELLS
CPM/ml ([5]; AZT 1UM, day 14): 5.7E+02 CPM/ml
